Source: the supplement of paper PMC10307832

Compound: COC1=C(C=C(C=C1)C2=CC3=NC=CN3C(=N2)NC4=C(C=CC=N4)C(=O)N)OC [BAY61-3606] + CC(C)C[C@H](NC(=O)[C@H](Cc1ccccc1)NC(=O)c1cnccn1)B(O)O [Bortezomib] (partner 0.002 µM)
Assay: relative viability (nuclei count vs DMSO), 5 days (fraction); higher = more cells survive
Settings: first compound 0.02 µM
Outline: (§1)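 Five library-drug doses in √10 steps were combined with a fixed anchor-drug dose, or a single drug was given alone, by pin tool to lung cancer cell lines in 1536-well plates the day after seeding. Nuclei were stained and counted after 5 days. Relative viability is the nuclei count in treated wells over that in vehicle wells, taken as the median of duplicate plates.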

Q: RERF-LC-KJ was tested. Which relative viability did it give?
A: 1.2

Q: How did the relative viability turn out when NCI-H1651 was run?
A: 1.03

Q: EBC-1 was tested. Which relative viability did it give?
A: 0.571

Q: How did the relative viability turn out when NCI-H1734 was run?
A: 0.878

Q: Which relative viability does the source give for NCI-H2009 here?
A: 1.07

Q: For NCI-H596, which relative viability is on record?
A: 0.99

Q: For SK-LU-1, which relative viability is on record?
A: 1.38

Q: Which relative viability does the source give for SW 1573 here?
A: 1.16

Q: How did the relative viability turn out when LCLC-97TM1 was run?
A: 0.639

Q: NCI-H661 was tested. Which relative viability did it give?
A: 0.896

Q: Which relative viability does the source give for NCI-H2228 here?
A: 1.32

Q: With EMC-BAC-2 as the cell line, how does the relative viability read?
A: 1.11

Q: For NCI-H2087, which relative viability is on record?
A: 0.908

Q: How did the relative viability turn out when Calu-6 was run?
A: 1.12

Q: HCC-44 was tested. Which relative viability did it give?
A: 0.889

Q: For NCI-H1703, which relative viability is on record?
A: 0.486

Q: How did the relative viability turn out when NCI-H727 was run?
A: 0.844

Q: Which relative viability does the source give for NCI-H2126 here?
A: 1.11

Q: Which relative viability does the source give for H3255 here?
A: 0.932

Q: COR-L23 was tested. Which relative viability did it give?
A: 1.06

Q: With COR-L 105 as the cell line, how does the relative viability read?
A: 0.85

Q: Which relative viability does the source give for LC-2-ad here?
A: 1.02

Q: For LU99A, which relative viability is on record?
A: 1.14

Q: IA-LM was tested. Which relative viability did it give?
A: 0.912

Q: How did the relative viability turn out when NCI-H1299 was run?
A: 1.08

Q: Which relative viability does the source give for CAL-12T here?
A: 1.2

Q: With NCI-H1563 as the cell line, how does the relative viability read?
A: 0.84

Q: With ABC-1 as the cell line, how does the relative viability read?
A: 0.291

Same assay, conditions: first compound 0.06325 µM

Q: With RERF-LC-KJ as the cell line, how does the relative viability read?
A: 1.13

Q: How did the relative viability turn out when NCI-H1651 was run?
A: 0.99

Q: Which relative viability does the source give for EBC-1 here?
A: 0.632

Q: NCI-H1734 was tested. Which relative viability did it give?
A: 0.894

Q: For NCI-H2009, which relative viability is on record?
A: 1.02

Q: How did the relative viability turn out when NCI-H596 was run?
A: 1.08

Q: Which relative viability does the source give for SK-LU-1 here?
A: 1.15

Q: SW 1573 was tested. Which relative viability did it give?
A: 1.18

Q: LCLC-97TM1 was tested. Which relative viability did it give?
A: 0.73

Q: How did the relative viability turn out when NCI-H661 was run?
A: 0.713

Q: With NCI-H2228 as the cell line, how does the relative viability read?
A: 1.17

Q: Which relative viability does the source give for EMC-BAC-2 here?
A: 1.13

Q: NCI-H2087 was tested. Which relative viability did it give?
A: 0.862

Q: Which relative viability does the source give for Calu-6 here?
A: 1.15

Q: HCC-44 was tested. Which relative viability did it give?
A: 0.847

Q: NCI-H1703 was tested. Which relative viability did it give?
A: 0.321

Q: Which relative viability does the source give for NCI-H727 here?
A: 0.822

Q: NCI-H2126 was tested. Which relative viability did it give?
A: 1.13

Q: Which relative viability does the source give for H3255 here?
A: 0.611

Q: How did the relative viability turn out when COR-L23 was run?
A: 1.12

Q: With COR-L 105 as the cell line, how does the relative viability read?
A: 0.688

Q: Which relative viability does the source give for LC-2-ad here?
A: 1.1

Q: How did the relative viability turn out when LU99A was run?
A: 1.21

Q: With NCI-H1299 as the cell line, how does the relative viability read?
A: 1.03

Q: How did the relative viability turn out when CAL-12T was run?
A: 0.939

Q: How did the relative viability turn out when NCI-H1563 was run?
A: 0.803

Q: How did the relative viability turn out when ABC-1 was run?
A: 0.308

Same assay, conditions: first compound 0.2 µM

Q: RERF-LC-KJ was tested. Which relative viability did it give?
A: 1.06

Q: With NCI-H1651 as the cell line, how does the relative viability read?
A: 0.911

Q: How did the relative viability turn out when EBC-1 was run?
A: 0.616

Q: Which relative viability does the source give for NCI-H1734 here?
A: 0.836

Q: How did the relative viability turn out when NCI-H2009 was run?
A: 0.961

Q: How did the relative viability turn out when NCI-H596 was run?
A: 1.17

Q: How did the relative viability turn out when SK-LU-1 was run?
A: 1.12

Q: How did the relative viability turn out when SW 1573 was run?
A: 0.971

Q: For LCLC-97TM1, which relative viability is on record?
A: 0.527

Q: How did the relative viability turn out when NCI-H661 was run?
A: 0.767

Q: For NCI-H2228, which relative viability is on record?
A: 0.916

Q: For EMC-BAC-2, which relative viability is on record?
A: 1.06

Q: Which relative viability does the source give for NCI-H2087 here?
A: 0.869

Q: Calu-6 was tested. Which relative viability did it give?
A: 1.06

Q: HCC-44 was tested. Which relative viability did it give?
A: 0.845

Q: How did the relative viability turn out when NCI-H1703 was run?
A: 0.291

Q: NCI-H727 was tested. Which relative viability did it give?
A: 0.872

Q: NCI-H2126 was tested. Which relative viability did it give?
A: 1.08

Q: Which relative viability does the source give for H3255 here?
A: 0.724

Q: Which relative viability does the source give for COR-L23 here?
A: 0.934

Q: For COR-L 105, which relative viability is on record?
A: 0.622

Q: With LC-2-ad as the cell line, how does the relative viability read?
A: 0.979

Q: For LU99A, which relative viability is on record?
A: 1.18

Q: For IA-LM, which relative viability is on record?
A: 0.917

Q: NCI-H1299 was tested. Which relative viability did it give?
A: 1.02

Q: How did the relative viability turn out when CAL-12T was run?
A: 0.862

Q: Which relative viability does the source give for NCI-H1563 here?
A: 0.948

Q: ABC-1 was tested. Which relative viability did it give?
A: 0.35

Same assay, conditions: first compound 0.6325 µM

Q: With RERF-LC-KJ as the cell line, how does the relative viability read?
A: 1.17

Q: Which relative viability does the source give for NCI-H1651 here?
A: 0.941

Q: EBC-1 was tested. Which relative viability did it give?
A: 0.569

Q: How did the relative viability turn out when NCI-H1734 was run?
A: 0.883

Q: With NCI-H2009 as the cell line, how does the relative viability read?
A: 1.02

Q: Which relative viability does the source give for NCI-H596 here?
A: 1.48

Q: How did the relative viability turn out when SK-LU-1 was run?
A: 1.21

Q: SW 1573 was tested. Which relative viability did it give?
A: 1.02

Q: Which relative viability does the source give for LCLC-97TM1 here?
A: 0.533

Q: With NCI-H661 as the cell line, how does the relative viability read?
A: 0.724

Q: How did the relative viability turn out when NCI-H2228 was run?
A: 1.22

Q: With EMC-BAC-2 as the cell line, how does the relative viability read?
A: 1.09

Q: Which relative viability does the source give for NCI-H2087 here?
A: 0.759

Q: Which relative viability does the source give for Calu-6 here?
A: 1.01

Q: HCC-44 was tested. Which relative viability did it give?
A: 0.878

Q: For NCI-H1703, which relative viability is on record?
A: 0.368

Q: Which relative viability does the source give for NCI-H727 here?
A: 0.856

Q: With NCI-H2126 as the cell line, how does the relative viability read?
A: 1.08

Q: Which relative viability does the source give for H3255 here?
A: 0.822

Q: For COR-L23, which relative viability is on record?
A: 0.962

Q: Which relative viability does the source give for COR-L 105 here?
A: 0.807

Q: LC-2-ad was tested. Which relative viability did it give?
A: 1.08

Q: LU99A was tested. Which relative viability did it give?
A: 1.12

Q: Which relative viability does the source give for IA-LM here?
A: 0.797

Q: With NCI-H1299 as the cell line, how does the relative viability read?
A: 1.04

Q: With CAL-12T as the cell line, how does the relative viability read?
A: 0.78

Q: NCI-H1563 was tested. Which relative viability did it give?
A: 0.988

Q: For ABC-1, which relative viability is on record?
A: 0.427

Same assay, conditions: first compound 2 µM

Q: How did the relative viability turn out when RERF-LC-KJ was run?
A: 0.85

Q: How did the relative viability turn out when NCI-H1651 was run?
A: 0.952

Q: How did the relative viability turn out when EBC-1 was run?
A: 0.459

Q: How did the relative viability turn out when NCI-H1734 was run?
A: 0.518

Q: NCI-H2009 was tested. Which relative viability did it give?
A: 0.83

Q: For NCI-H596, which relative viability is on record?
A: 1.1

Q: SK-LU-1 was tested. Which relative viability did it give?
A: 0.961

Q: SW 1573 was tested. Which relative viability did it give?
A: 0.66

Q: LCLC-97TM1 was tested. Which relative viability did it give?
A: 0.702

Q: NCI-H661 was tested. Which relative viability did it give?
A: 0.556

Q: Which relative viability does the source give for NCI-H2228 here?
A: 0.567

Q: With EMC-BAC-2 as the cell line, how does the relative viability read?
A: 1.08

Q: With NCI-H2087 as the cell line, how does the relative viability read?
A: 0.746

Q: With Calu-6 as the cell line, how does the relative viability read?
A: 0.831

Q: How did the relative viability turn out when HCC-44 was run?
A: 0.947

Q: NCI-H1703 was tested. Which relative viability did it give?
A: 0.234

Q: NCI-H727 was tested. Which relative viability did it give?
A: 0.829

Q: How did the relative viability turn out when NCI-H2126 was run?
A: 1.07

Q: For H3255, which relative viability is on record?
A: 0.725

Q: With COR-L23 as the cell line, how does the relative viability read?
A: 0.714

Q: Which relative viability does the source give for COR-L 105 here?
A: 0.388

Q: With LC-2-ad as the cell line, how does the relative viability read?
A: 0.907

Q: How did the relative viability turn out when LU99A was run?
A: 0.709

Q: For IA-LM, which relative viability is on record?
A: 0.68

Q: How did the relative viability turn out when NCI-H1299 was run?
A: 0.991

Q: For CAL-12T, which relative viability is on record?
A: 0.799

Q: For NCI-H1563, which relative viability is on record?
A: 0.631

Q: For ABC-1, which relative viability is on record?
A: 0.284

Compound: COC1=C(C=C(C=C1)C2=CC3=NC=CN3C(=N2)NC4=C(C=CC=N4)C(=O)N)OC [BAY61-3606] + Nc1ncn([C@H]2C[C@H](O)[C@@H](CO)O2)c(=O)n1 [Decitabine] (partner 2 µM)
Assay: as above
Settings: first compound 0.02 µM
Outline: as §1

Q: NCI-H2342 was tested. Which relative viability did it give?
A: 0.81

Q: Which relative viability does the source give for RERF-LC-KJ here?
A: 0.766

Q: NCI-H1651 was tested. Which relative viability did it give?
A: 0.621

Q: How did the relative viability turn out when NCI-H1734 was run?
A: 0.551

Q: Which relative viability does the source give for NCI-H2009 here?
A: 0.368

Q: With NCI-H596 as the cell line, how does the relative viability read?
A: 1.06

Q: For SK-LU-1, which relative viability is on record?
A: 0.715

Q: With SW 1573 as the cell line, how does the relative viability read?
A: 0.526

Q: How did the relative viability turn out when LCLC-97TM1 was run?
A: 0.223

Q: For NCI-H661, which relative viability is on record?
A: 0.594

Q: EMC-BAC-2 was tested. Which relative viability did it give?
A: 1.07

Q: Which relative viability does the source give for NCI-H2087 here?
A: 0.352

Q: With HCC-44 as the cell line, how does the relative viability read?
A: 0.939

Q: Which relative viability does the source give for NCI-H727 here?
A: 0.8

Q: With LK-2 as the cell line, how does the relative viability read?
A: 0.319

Q: How did the relative viability turn out when NCI-H2126 was run?
A: 0.631
